Source: patent publication US9617331B2, “Methods of regulating angiogenesis by administering agents which increase apoB-100 polypeptide” (Yeda Research and Development Co. Ltd., priority 2011, dated 2017)

What was measured:
WT zebrafish embryos = experiment: Survival of WT zebrafish embryos treated with oleic acid; format: in vivo; conditions: increasing concentrations
Protocol: FIG. 11 is a survival curve of WT zebrafish embryos treated with increasing concentrations of oleic acid. Only embryos treated with less than 6 μg/ml oleic acid survived until 6 dpf.

trunk ISVs = experiment: Trunk intersegmental vessel (ISV) phenotype of morpholino-injected zebrafish; format: in vivo; conditions: 3.5 dpf MO-injected zebrafish
Protocol: Microscopy and Imaging: Zebrafish embryos used for imaging or in situ hybridization were treated with 0.00 3% phenylthiourea from 8hpf to inhibit melanin pigment formation. Confocal imaging was performed using a FVIOOO Olympus imaging system or Zeiss LSM780 upright confocal microscope equipped with ×20 NA 1.0 lens.
Injection of Zebrafish Embryos: The mtp [Schlegel, A. & Stainier, D. Y. Biochemistry 45, 15179-15187 (2006)], apoCII [Pickart, M. A., et al. PLoS One 1, e104 (2006);
MOs (Gene-Tools) were resuspended and injected at concentrations from 5-20 ng/embryo.

[1] = tested on: subintestinal vessels (SIVs) of wild type zebrafish; experiment: Ectopic subintestinal vessel (SIV) sprouting in wild type zebrafish (AP staining / confocal imaging); format: in vivo; conditions: for ectopic SIV branching: 3.5 dpf wild type larva treated with 10 μM at 2.5 dpf, vs DMSO
Protocol: (§1) FIG. 6 illustrates quantitation of SW vascular plexus width and ectopic ventral SW sprout number and length. The maximal width of the normal SIV plexus is measured from supraintestinal artery to subintestinal vein (1). The number of ectopic sprouts greater than 1 μm in length projecting ventrally from the subintestinal vein is counted, and the total length of all of these sprouts (2) is measured. […] Scale bar 30 μm.
Zebrafish Husbandry and Injection: Zebrafish were raised by standard methods. The Tg(fli1:EGFP)^y1, Tg(fli1:nEGFP)^y7 [Yaniv et al., Nat Med 12, 711-716 (2006)] and Tg(flt1:YFP)^hu4624 [Hogan et al., Nat Genet 41, 396-398 (2009)] lines were previously derived. MOs and DNA were injected as further described below.
(§2) Microangiography and Cell Transplants: 10 μM Atorvastatin (Sigma), 1 ug/μl DiI-LDL (Invitrogen), 6 μg/ml C6 in 0.5% BSA Fatty Acid Free (Sigma A8806) and Human Apolipoprotein B-100 (A50220H Meridian Life Science) in 0.5% BSA Fatty Acid Free (Sigma A8806) microangiography was performed at 2.5 dpf as described [Isogai et al., Dev Biol 230, 278-301 (2001)]. HEK293 cells co-transfected with Huh7MTP+apoB34 (see herein below) or un-transfected control cells were transplanted into the perivitelline space of one side of the yolk of 2.5 dpf stl; Tg(fli1:EGFP)^y1 mutant or WT embryos, ventral to the developing SIVs [Nicoll et al., J Cell Mol Med (2008)].
(§3) In Situ Hybridization, Oil Red 0, and Alkaline Phosphatase (AP) Staining: Embryos were fixed overnight in 4% PFA and processed for AP staining [Habeck et al., Curr Biol 12, 1405-1412 (2002)], Oil Red 0 staining [Schlegel et al., Biochemistry 45, 15179-15187 (2006)], or whole-mount in situ hybridization using antisense mRNA probes for vegfr1, vegfr2, vegfr3 and VeCad as described [Pham et al., Dev Biol 303, 772-783 (2007)].
Microscopy and Imaging: Zebrafish embryos used for imaging or in situ hybridization were treated with 0.00 3% phenylthiourea from 8hpf to inhibit melanin pigment formation. […]

stl mutants = experiment: Rescue of ectopic SIV sprouts in stl mutant zebrafish; format: in vivo; conditions: for excess angiogenesis / ectopic branching phenotype of stl mutants: intravascular supply at 2.5 dpf
Protocol: as §1
Cloning of mtp and Rescue of the Mutant Phenotype: The full-length coding sequence of zebrafish mtp was amplified by PCR from WT cDNA and cloned into a pCSDest vector [Villefranc et al., Dev Dyn 236, 3077-3087 (2007)] as further described herein below. mtp mRNA was synthesized with mMessage mMachine kit (Ambion) and injected at a concentration of 232 pg per embryo into the 1 cell stage cytoplasm or into the YSL at dome stage (approximately at 4 hpf).
as §2, §3
pCS2vegfrlCDS mRNA ([…]) and pCS2mtpCDSmRNA ([…]) were injected at the 1 cell stage or at dome stage, respectively.
(§4) Fatty Acids Feeding of Zebrafish Embryos: Dechorionized 24 hours post fertilization (hpf) embryos were incubated with 6 μg/ml short, intermediate or long chain fatty acid in a solution containing 0.1% BSA Fatty Acid Free (Sigma A8806) for 48 hours. Embryos were then fixed overnight in 4% PFA and processed for AP staining.

apoCII morphants = experiment: Fatty acid feeding of apoCII morphants, trunk ISV phenotype; format: in vivo, zebrafish; conditions: medium supplemented with 6 μg/ml (C6)
Protocol: as §4

[2] = stl mutants injected intravascularly at 2.5 dpf, vs not injected

In the case of `CCCCCCCC/C=C\CCCCCCCC(=O)O` [oleic acid], the “oleic acid concentration at which embryos survived until 6 dpf” value (WT zebrafish embryos) is reported as “less than 6 μg/ml”.

“vegfr1 MO: vegfr1 ATG blocking morpholino, SEQ ID NO: 1, 5′-ATATCGAACATTCTCTTGGTCTTGC-3′ (all phosphorodiamidate morpholino (PMO))” was tested, and the “trunk ISV phenotype” value (trunk ISVs) was “ectopic branching and sprouting” and the “ectopic SIV sprouts after morpholino injection” value ([1]; 3.5 dpf Tg(fli-EGFP)y1 zebrafish, MO-injected) was “ectopic SIV sprouts”.

In the case of “delipidated form of apoB-100: Human Apolipoprotein B-100 (A50220H Meridian Life Science)”, the “excess angiogenesis / ectopic branching phenotype of stl mutants” value (stl mutants) is reported as “efficiently reverted the excess angiogenesis phenotype”, the “average number of ectopic SIV segments” value (stl mutants; [2]) is reported as “significantly reduced” and the “average total length of ectopic SIV segments” value (stl mutants; [2]) is reported as “significantly reduced”.

In the case of `CCCCCC(=O)O` [scFA], the “ectopic vessels phenotype of stl mutants” value (stl mutants; 3.5 dpf stl mutants, 6 μg/ml fatty acid in embryo medium) is reported as “did not inhibit the ectopic vessels phenotype”, the “excess angiogenesis / ectopic branching phenotype of stl mutants” value (stl mutants) is reported as “did not rescue the ectopic branching phenotype” and the “trunk ISV phenotype of apoCII morphants” value (apoCII morphants) is reported as “No phenotypic changes were detected”.

In the case of `CC(C)c1c(C(=O)Nc2ccccc2)c(-c2ccccc2)c(-c2ccc(F)cc2)n1CC[C@@H](O)C[C@@H](O)CC(=O)O` [atorvastatin, Atorvastatin], the “ectopic SIV branching” value [1] is reported as “efficiently phenocopied the excess angiogenesis phenotype of stl mutants” and the “ectopic SIV branching” value ([1]; listed as Atorvastatin) is reported as “results in ectopic SW branching”.
